How the values were obtained:
IDDM = conditions: mice, subcutaneously (sc) in an oil vehicle (IFA); cited from earlier work
[1] = system: T cells reactive to the p277(Val^6-Val^11); experiment: Cytokine profile of spleen cells of treated NOD mice, cytokine ELISA (Example 4); format: in vivo, mouse; conditions: spleen cells 5 weeks after treatment
Description: Concanavalin A (ConA), a T-cell mitogen, was used to activate total splenic T-cells as a control.
Five weeks later, the spleens of the mice were removed and the spleen cells were pooled. […] The presence of the cytokines in the culture supernatants was quantitated by ELISA, using Pharmingen paired antibodies according to the Pharmingen cytokine ELISA protocol. Pharmingen recombinant mouse cytokines were used as standards for calibration curves. Briefly, flat-bottom 96-well microtiter plates were coated with rat anti-mouse cytokine mAbs for 18 h at 4° C., and the culture supernatants or recombinant mouse cytokines were added for 18 h at 4° C. The plates were washed, and biotinylated rat anti-mouse cytokine mAbs were added for 45 min at room temperature, then extensively washed, and avidin-alkaline phosphatase was added. The plates were washed, a chromogen substrate (p-nitrophenylphosphate) was added and samples were read at 405 nm in an ELISA reader. The concentrations of cytokines are shown as the OD readings. *P<0.01.

autoimmune T cells = experiment: p277(Val^6-Val^11)-peptide treatment: spontaneous T-cell responses and autoantibodies (summary statement); format: in vivo, mouse; conditions: peptide in an appropriate carrier
NOD mice = experiment: Antibody isotypes induced by p277(Val^6-Val^11) therapy, isotype ELISA (Example 3); format: in vivo, mouse; conditions: NOD mice 3 months old, treated in oil, FIG. 2
Experimental: The sera of individual mice were assayed for the isotypes of their antibodies to p277(Val6-Val^11) after treatment (12-15 mice per group). The antibody isotypes were detected using an ELISA assay with isotype-specific developing antibody reagents (Southern Biotechnology Associates, Birmingham, Ala.). […] The columns in each experiment show results from equal numbers of mice; an apparent reduction in numbers of circles is caused by superimposition.

## p277: human hsp60 positions 437-460: VLGGGCALLRCIPALDSLTPANED
IDDM
  Peptide therapy for treatment of IDDM: effective

## p277(Val^6-Val^11): SEQ ID NO 4, hsp60 437-460 with C-442 and C-447 changed to V: VLGGGVALLRVIPALDSLTPANED
[1]; 24 h incubation with Con A, FIG. 3B
  IL-2 cytokine response to ConA: maintained
[1]; 24 h incubation, vs control mice (PBS in Intralipid), P<0.01, FIG. 3A
  IL-2 secretion in response to incubation with peptide p277(Val^6-Val^11): significantly less
[1]; 48 h incubation with Con A, FIG. 3B
  IFNγ cytokine response to ConA: maintained
[1]; 48 h incubation, vs control mice (PBS in Intralipid), P<0.01, FIG. 3A
  IFNγ secretion in response to incubation with peptide p277(Val^6-Val^11): significantly less
Autoimmune T cells
  production of autoantibodies to hsp60, to GAD and to insulin: abolished
  spontaneous T-cell proliferative responses to epitopes of both hsp60 and GAD: down-regulated
  spontaneous T-cell response of the treated mice to a bacterial hsp60 peptide: remained in the TH1 mode
NOD mice
  TH1-type IgG2a antibodies: no TH1-type IgG2a antibodies induced
  isotypes of the anti-p277 antibodies developing after treatment: exclusively of the IgG1 and IgG2b classes

## p32: human hsp60 positions 466-485: EIIKRTLKIPAMTIAXNAGV (EIIKRTLKIPAMTIAKNAGV)
IDDM
  Peptide therapy for treatment of IDDM: effective

## p12: human hsp60 positions 166-185: EEIAQVATISANGDKEIGNI
IDDM
  Peptide therapy for treatment of IDDM: effective

— US6488933B2, “Preparations for the treatment of T cell mediated diseases” (Yeda Research and Development Co. Ltd., priority 1995, dated 2002)
